Experimental data: ChEMBL document CHEMBL5223082, “Alkyl-Aryl-Vancomycins: Multimodal Glycopeptides with Weak Dependence on the Bacterial Metabolic State” (J Med Chem, 2021)
Values after ≈ are worked out from the molar mass of the structure shown.

How the values were obtained:
Staphylococcus aureus [1] = assay: Antibacterial activity against Vancomycin-resistant Staphylococcus aureus 12 assessed as inhibition of bacterial growth incubated for 18 to 24 hrs by CLSI microbroth dilution method; assay type: functional; conditions: time 18-24 hrs
Staphylococcus aureus [2] = assay: Potency index, ratio of Vancomycin MIC to test compound MIC for antibacterial activity against Vancomycin-resistant Staphylococcus aureus 12; assay type: functional
Enterococcus [3] = assay: Potency index, ratio of Vancomycin MIC to test compound MIC for antibacterial activity against Vancomycin-resistant Enterococci NR30903; assay type: functional, NR 30903
Staphylococcus aureus [4] = assay: Potency index, ratio of Vancomycin MIC to test compound MIC for antibacterial activity against Vancomycin-resistant Staphylococcus aureus 4; assay type: functional
Enterococcus [5] = assay: Antibacterial activity against Vancomycin-resistant Enterococci ATCC 51575 assessed as inhibition of bacterial growth incubated for 18 to 24 hrs by CLSI microbroth dilution method; assay type: functional; conditions: time 18-24 hrs
Enterococcus [6] = assay: Potency index, ratio of Vancomycin MIC to test compound MIC for antibacterial activity against Vancomycin-resistant Enterococci ATCC 51559; assay type: functional
Staphylococcus aureus [7] = assay: Antibacterial activity against Vancomycin-resistant Staphylococcus aureus 1 assessed as inhibition of bacterial growth incubated for 18 to 24 hrs by CLSI microbroth dilution method; assay type: functional; conditions: time 18-24 hrs
Enterococcus [8] = assay: Antibacterial activity against Vancomycin-resistant Enterococci NR30909 assessed as inhibition of bacterial growth incubated for 18 to 24 hrs by CLSI microbroth dilution method; assay type: functional; conditions: time 18-24 hrs
Staphylococcus aureus [9] = assay: Antibacterial activity against Vancomycin-resistant Staphylococcus aureus 4 assessed as inhibition of bacterial growth incubated for 18 to 24 hrs by CLSI microbroth dilution method; assay type: functional; conditions: time 18-24 hrs
Enterococcus [10] = assay: Antibacterial activity against Vancomycin-resistant Enterococci ATCC 51559 assessed as inhibition of bacterial growth incubated for 18 to 24 hrs by CLSI microbroth dilution method; assay type: functional; conditions: time 18-24 hrs
[11] = Induction of hemolysis in human erythrocytes incubated for 1 hr by microtiter plater reader analysis; assay type: toxicity, cell-based, Erythrocyte
Enterococcus [12] = assay: Potency index, ratio of Vancomycin MIC to test compound MIC for antibacterial activity against Vancomycin-resistant Enterococci ATCC 51575; assay type: functional
Staphylococcus aureus [13] = assay: Potency index, ratio of Vancomycin MIC to test compound MIC for antibacterial activity against Vancomycin-resistant Staphylococcus aureus 1; assay type: functional
Enterococcus [14] = assay: Antibacterial activity against Vancomycin-resistant Enterococci NR30903 assessed as inhibition of bacterial growth incubated for 18 to 24 hrs by CLSI microbroth dilution method; assay type: functional; conditions: time 18-24 hrs
Enterococcus [15] = assay: Potency index, ratio of Vancomycin MIC to test compound MIC for antibacterial activity against Vancomycin-resistant Enterococci NR30909; assay type: functional, NR 30909
Staphylococcus aureus [16] = assay: Antibacterial activity against Methicillin-resistant Staphylococcus aureus ATCC 33591 assessed as inhibition of bacterial growth incubated for 18 to 24 hrs by CLSI microbroth dilution method; assay type: functional; conditions: time 18-24 hrs
[17] = Induction of hemolysis in human erythrocytes at 250 uM incubated for 1 hr by microtiter plater reader analysis; assay type: toxicity, cell-based, Erythrocyte; conditions: read-out: Activity

SMILES | MIC (Staphylococcus aureus [1]) [µM] | Ratio (Staphylococcus aureus [2]) | Ratio (Enterococcus [3]) | Ratio (Staphylococcus aureus [4]) | MIC (Enterococcus [5]) [µM] | Ratio (Enterococcus [6]) | MIC (Staphylococcus aureus [7]) [µM] | MIC (Enterococcus [8]) [µM] | MIC (Staphylococcus aureus [9]) [µM] | MIC (Enterococcus [10]) [µM] | HC50 at 1 h [11] [µM] | Ratio (Enterococcus [12]) | Ratio (Staphylococcus aureus [13]) | MIC (Enterococcus [14]) [µM] | Ratio (Enterococcus [15]) | MIC (Staphylococcus aureus [16]) [µM] | hemolysis at 1 h, 250 µM [17] [%]
CCCCCCCCCCCCNC(=O)C[N+](C)(C)CCCNC(=O)c1ccc(CN[C@@]2(C)C[C@H](O[C@H]3[C@H](Oc4c5cc6cc4Oc4ccc(cc4Cl)[C@@H](O)[C@@H](NC(=O)[C@@H](CC(C)C)NC)C(=O)N[C@@H](CC(N)=O)C(=O)N[C@H]6C(=O)N[C@H]4C(=O)N[C@H](C(=O)N[C@H](C(=O)O)c6cc(O)cc(O)c6-c6cc4ccc6O)[C@H](O)c4ccc(c(Cl)c4)O5)O[C@H](CO)[C@@H](O)[C@@H]3O)O[C@@H](C)[C@H]2O)cc1 | 0.9 | 780 | 780 | 780 | 1.8 | 780 | 0.9 | 0.9 | 0.9 | 1.8 | 72 | 780 | 780 | 0.9 | 780 | 1.8 | –
CCCCCCCCCCNC(=O)C[N+](C)(C)CCCNC(=O)c1ccc(C)cc1 | – | – | – | – | > 40 | – | – | > 40 | – | > 40 | – | – | – | > 40 | – | – | –
CCCCCCCCCCCCCCNC(=O)C[N+](C)(C)CCCNC(=O)c1ccc(CN[C@@]2(C)C[C@H](O[C@H]3[C@H](Oc4c5cc6cc4Oc4ccc(cc4Cl)[C@@H](O)[C@@H](NC(=O)[C@@H](CC(C)C)NC)C(=O)N[C@@H](CC(N)=O)C(=O)N[C@H]6C(=O)N[C@H]4C(=O)N[C@H](C(=O)N[C@H](C(=O)O)c6cc(O)cc(O)c6-c6cc4ccc6O)[C@H](O)c4ccc(c(Cl)c4)O5)O[C@H](CO)[C@@H](O)[C@@H]3O)O[C@@H](C)[C@H]2O)cc1 | 1.8 | 780 | 780 | 780 | 1.8 | 780 | 1.8 | 0.9 | 1.8 | 1.8 | 35 | 780 | 780 | 0.9 | 780 | 1.8 | –
CN[C@H](CC(C)C)C(=O)N[C@H]1C(=O)N[C@@H](CC(N)=O)C(=O)N[C@H]2C(=O)N[C@H]3C(=O)N[C@H](C(=O)N[C@H](C(=O)O)c4cc(O)cc(O)c4-c4cc3ccc4O)[C@H](O)c3ccc(c(Cl)c3)Oc3cc2cc(c3O[C@@H]2O[C@H](CO)[C@@H](O)[C@H](O)[C@H]2O[C@H]2C[C@](C)(NCc3ccc(-c4ccc(Cl)cc4)cc3)[C@H](O)[C@H](C)O2)Oc2ccc(cc2Cl)[C@H]1O | 4.2 (≈ 6.93 µg/mL) | – | – | – | 2.1 (≈ 3.46 µg/mL) | – | 4.2 (≈ 6.93 µg/mL) | 4.2 (≈ 6.93 µg/mL) | 2.1 (≈ 3.46 µg/mL) | 4.2 (≈ 6.93 µg/mL) | – | – | – | 4.2 (≈ 6.93 µg/mL) | – | 0.5 (≈ 0.825 µg/mL) | –
CN[C@H](CC(C)C)C(=O)N[C@H]1C(=O)N[C@@H](CC(N)=O)C(=O)N[C@H]2C(=O)N[C@H]3C(=O)N[C@H](C(=O)N[C@H](C(=O)O)c4cc(O)cc(O)c4-c4cc3ccc4O)[C@H](O)c3ccc(c(Cl)c3)Oc3cc2cc(c3O[C@@H]2O[C@H](CO)[C@@H](O)[C@H](O)[C@H]2O[C@H]2C[C@](C)(NCc3ccc(C(=O)NCCC[N+](C)(C)Cc4ccccc4)cc3)[C@H](O)[C@H](C)O2)Oc2ccc(cc2Cl)[C@H]1O | 30.5 | – | – | – | > 30 | – | 30.5 | > 30 | 30.5 | > 30 | > 250 | – | – | > 30 | – | 0.9 | 0
CN[C@H](CC(C)C)C(=O)N[C@H]1C(=O)N[C@@H](CC(N)=O)C(=O)N[C@H]2C(=O)N[C@H]3C(=O)N[C@H](C(=O)N[C@H](C(=O)O)c4cc(O)cc(O)c4-c4cc3ccc4O)[C@H](O)c3ccc(c(Cl)c3)Oc3cc2cc(c3O[C@@H]2O[C@H](CO)[C@@H](O)[C@H](O)[C@H]2O[C@H]2C[C@](C)(NCc3ccc(C(=O)NCCC[N+](C)(C)Cc4cccc5ccccc45)cc3)[C@H](O)[C@H](C)O2)Oc2ccc(cc2Cl)[C@H]1O | 3.7 | – | – | – | > 30 | – | 29.8 | 7.4 | 14.9 | > 30 | > 250 | – | – | 14.9 | – | 0.9 | 0
